Results as given in patent US7648977B2, “Pharmaceutical composition having a ruthenium oxalato compound and method of using the same” (The University of Hong Kong, priority 2005, dated 2010).

Assays:
[1] = tested on: HIV-1 infected Hut/CCR5 cells; assay: TUNEL assay, cytoprotective activity in HIV-1 infected Hut/CCR5 cells; format: cell-based; conditions: HIV-1 infected Hut/CCR5 cells, 0.5, 5 and 50 μM
Excerpt: The TUNEL reaction preferentially labels DNA strand breaks generated during apoptosis. This is done by labeling DNA strand breaks by terminal deoxynucleotidyl transferase (TdT), which catalyzes polymerization of labeled nucleotides to free 3′-OH DNA ends in a template-independent manner (TUNEL-reaction). The TUNEL method (In Situ Cell Death Detection Kit, Fluorescein, Roche) combined with flow cytometry was used for the measurement of apoptosis (Gorczyca et al. Cancer Res. (1993), 53, 1945). The quantitative analysis of 3′-OH ends was performed using the MDADS analysis program (Beckman Coulter).
HIV-1 infected Hut/CCR5 cells were treated with 2 (0.5, 5, and 50 μM) for 3 days. The cells were fixed (in 4% paraformaldehyde in PBS, pH 7.4) and permeabilisated (0.1% Triton X-100 in 0.1% sodium citrate), The cells were then rinsed twice with PBS and labeled with 50 μL TUNEL reaction mixture (50 μL Enzyme solution +450 μL Label solution) for 60 min. at 37° C. in a humidified atmosphere in dark. The samples were rinsed with PBS three times and resuspended in 1 mL PBS containing 5 μg/mL of PI and 0.1% RNAse. Flow cytometry was performed on a FACScan cytometry. The red (PI) and green (fluorescein) fluorescence emissions from each cell were measured.

HIV-1(IIIB) = conditions: 0.5-50 μM, viral p24 antigen, FIG. 8
Protocol: GHOST/CXCR4 and PBMC cells in 24-well plate (5×10^5 cells/well) were pretreated with compounds (400 μL) for an hour at 37° C. and subsequently infected in triplicate with a panel of CCR5-tropic HIV-1 isolates (with the addition of 5 μL of HIV-1 stock to each well, total p24 content=1500 pg) for 3 h. Following infection, the cells were washed to remove residual viral inoculums and cultured in the presence of compounds (400 μL) for 3 or 7 days. Culture supernatants were harvested and viral replication was measured by determination of viral p24 antigen concentration by ELISA (HIV-1 p24 antigen Kit, Beckman Coulter). Compounds were tested in triplicate at 3 concentrations ranging from 0.5-50 μM. AZT was also examined as a reference standard.

HIV-1 RT = HIV-1 RT (Human immunodeficiency virus type 1 group M subtype B, UniProt P04585); conditions: percentage luminescence relative to untreated control
Protocol: The inhibitory effect of different compounds on HIV-1 RT activities were assayed using a commercial assay kit (Reverse Transcriptase Assay, Chemiluminescent, Roche). […] (30 min.). The ELISA assays were conducted by following the manufacturer's instructions (Eberle and Seibl J. Virol. Methods (1992), 40, 347). In general, the indicated components were added to the corresponding wells of the microtitre plate from the kit and incubated for 1 h at 37° C. The solution in each well was then completely removed and the wells were rinsed five times with 250 μL of washing buffer per well. During each washing step, the washing buffer was left in the wells for a minimum of 30 seconds. The microtitre plate modules were covered and dried with a blotting paper, followed by the incubation with anti-DIG-POD working dilution was added (200 μL per well) for 1 h at 37° C. The solution was discarded followed by the washing and drying steps as described above. The POD substrate was added (200 μL per well) and was incubated at room temperature for 15 min. The chemiluminescent signal was measured and quantified using a microtitre plate chemiluminescence reader. The HIV-1 RT activities were evaluated based on percentage luminescence of the solutions relative to the negative control (untreated population).

HIV-1(BaL) = conditions: Hut/CCR5 cells, 3 or 7 days, 0.5-50 μM, viral p24 antigen
Protocol: Following infection, the cells were washed to remove residual viral inoculums and cultured in the presence of compounds (400 μL) for 3 or 7 days. Culture supernatants were harvested and viral replication was measured by determination of viral p24 antigen concentration by ELISA (HIV-1 p24 antigen Kit, Beckman Coulter). Compounds were tested in triplicate at 3 concentrations ranging from 0.5-50 μM.

Na7[Ru4(μ3-O)4(C2O4)6] [Complex 2]
cytoprotective activity (TUNEL) [1]: showed cytoprotective activity | inhibition of HIV-1 replication in GHOST/CXCR4 cells (HIV-1(IIIB)): inhibited | inhibition of HIV-1 replication in PBMC cells (HIV-1(IIIB)): inhibited | inhibition of HIV-1 RT activity (HIV-1 RT): inhibited | inhibition of HIV-1(BaL) replication (HIV-1(BaL)): inhibited
